Data reported in paper PMC12891850 (Acta Pharmaceutica Sinica. B, 2025).

Biological target: T1, aldehyde oxidase 1 (AOX1) (Homo sapiens, UniProt Q06278)
T1 sequence (Q06278 1-1338): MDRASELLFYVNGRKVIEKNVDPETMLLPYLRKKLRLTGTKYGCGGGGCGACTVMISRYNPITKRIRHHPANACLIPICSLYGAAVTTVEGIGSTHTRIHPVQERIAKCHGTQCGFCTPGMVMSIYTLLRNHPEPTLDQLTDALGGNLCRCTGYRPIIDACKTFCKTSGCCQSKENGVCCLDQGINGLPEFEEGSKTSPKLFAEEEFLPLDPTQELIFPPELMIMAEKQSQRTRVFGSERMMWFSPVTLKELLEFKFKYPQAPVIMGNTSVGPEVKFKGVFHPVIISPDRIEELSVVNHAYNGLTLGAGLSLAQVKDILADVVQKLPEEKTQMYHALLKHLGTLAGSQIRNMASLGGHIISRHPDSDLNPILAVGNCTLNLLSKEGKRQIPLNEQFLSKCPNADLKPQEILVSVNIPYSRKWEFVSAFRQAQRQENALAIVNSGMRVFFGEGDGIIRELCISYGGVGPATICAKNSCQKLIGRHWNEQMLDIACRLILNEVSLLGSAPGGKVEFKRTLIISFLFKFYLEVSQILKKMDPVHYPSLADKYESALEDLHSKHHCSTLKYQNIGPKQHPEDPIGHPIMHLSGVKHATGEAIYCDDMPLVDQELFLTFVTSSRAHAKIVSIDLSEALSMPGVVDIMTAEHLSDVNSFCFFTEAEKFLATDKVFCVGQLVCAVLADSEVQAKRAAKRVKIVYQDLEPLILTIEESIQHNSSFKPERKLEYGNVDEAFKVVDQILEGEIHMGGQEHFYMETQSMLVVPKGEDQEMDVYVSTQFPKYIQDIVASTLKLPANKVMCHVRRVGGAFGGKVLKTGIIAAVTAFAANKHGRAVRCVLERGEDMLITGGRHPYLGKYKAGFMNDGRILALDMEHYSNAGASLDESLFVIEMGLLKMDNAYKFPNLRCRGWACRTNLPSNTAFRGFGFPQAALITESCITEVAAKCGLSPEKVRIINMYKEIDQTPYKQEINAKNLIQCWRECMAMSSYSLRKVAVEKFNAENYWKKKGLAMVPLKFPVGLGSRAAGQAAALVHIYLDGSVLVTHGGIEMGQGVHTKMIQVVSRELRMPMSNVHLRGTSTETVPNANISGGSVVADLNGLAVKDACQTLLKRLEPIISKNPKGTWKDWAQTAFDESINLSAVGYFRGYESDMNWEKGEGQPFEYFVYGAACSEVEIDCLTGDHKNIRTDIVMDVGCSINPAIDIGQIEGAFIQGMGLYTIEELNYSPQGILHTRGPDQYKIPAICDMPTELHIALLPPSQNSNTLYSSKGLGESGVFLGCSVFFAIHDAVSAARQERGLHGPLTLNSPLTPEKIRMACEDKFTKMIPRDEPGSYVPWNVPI
Assay: SPR
Format: binding

Kd: 42.7 µM
SMILES: CNC(=O)c1cc(Oc2ccc(NC(=O)Nc3ccc(Cl)c(C(F)(F)F)c3)c(F)c2)ccn1 [regorafenib]
